Assay results reported in patent US8791100B2 (Novartis AG, priority 2010, dated 2014).

target: human S1P1 receptors (Homo sapiens (Human), UniProt P21453); assay: Human S1P1 Receptor Calcium FLIPR Antagonist Assay (HeLa Gα16 S1P1); type: cell-based; settings: relative antagonism vs probing agonist GNF-AC-1 at EC80, HeLa-S1P1/Gα16 cells
From the text: Human S1P1 Receptor Calcium FLIPR Antagonist Assay
The assay measures intracellular changes of Ca^2+ mediated by the synthetic probing agonist 3-{[2-(2-Trifluoromethyl-biphenyl-4-yl)-benzo[b]thiophen-5-ylmethyl]-amino}-propionic acid (GNF-AC-1) in the HeLa-S1P1/Gα16 cell clone 1: HeLa (human cervix carcinoma, ATCC CCL2) cells stably expressing N-terminally myc-tagged human S1P1 receptors (GenBank™ accession No. NM_001400; UNIPROT P21453) and promiscuous Gα16 protein (GenBank™ accession number M63904, Swissprot P30679) are cultured at 37° C., 5% CO2, and 95% relative humidity. The cells are plated in 384 well black plates (10′000 cells per well). After 24 hours the cells are loaded with Fluo-4-AM (1.6 μM in HBSS and 2.5 mM probenicid) for 1 hour at 37° C. After washing, the cells are transferred to the FLIPR. The test compounds are added at different concentrations (≦100 μM) in HBSS in the presence of 0.1% BSA and changes in fluorescence are recorded (indication of agonism). The probing agonist is added 20-30 minutes afterwards to the wells at a concentration giving 80% of the maximal activity (EC80). After each addition, time points are collected as follows: 20 time points (2 seconds) before the addition of the agonist (Fmin) and 60 time points (1 or 2 seconds) after the addition of the probing agonist. This allows the determination of the maximal fluorescence (Fmax). The ratio (Fmax−Fmin)/Fmin is plotted against the log of the concentration of the test compounds and the IC50 (relative antagonism) is calculated using the XLfit-4 software. […] A concentration-response curve of the probing agonist is determined on each plate in parallel.

human S1P1 receptors, sequence (P21453 whole entry): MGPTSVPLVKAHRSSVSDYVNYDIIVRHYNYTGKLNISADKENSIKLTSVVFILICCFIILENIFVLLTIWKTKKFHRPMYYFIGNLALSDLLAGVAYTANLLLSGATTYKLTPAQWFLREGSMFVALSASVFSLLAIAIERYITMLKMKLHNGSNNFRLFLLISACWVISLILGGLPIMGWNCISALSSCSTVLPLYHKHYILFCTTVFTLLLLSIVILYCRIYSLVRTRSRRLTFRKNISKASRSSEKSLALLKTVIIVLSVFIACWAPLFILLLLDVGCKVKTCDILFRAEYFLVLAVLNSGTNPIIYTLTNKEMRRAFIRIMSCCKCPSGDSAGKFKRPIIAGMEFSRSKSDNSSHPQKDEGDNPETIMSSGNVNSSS

Structure (SMILES)	IC50 [nM]
Cc1ccc(N[C@H](C)c2cc(C)c(Cl)c(C)c2)cc1CN1CC[C@@H](C(=O)O)C1 [Example 44, (R)-1-{5-[(R)-1-(4-Chloro-3,5-dimethyl-phenyl)-ethylamino]-2-methyl-benzyl}-pyrrolidine-3-carboxylic acid]	6.7
CC[C@@H](Nc1ccc(C)c(CNC[C@@H](C)C(=O)O)c1)c1cc(C)c(Cl)c(C)c1 [Example 49, (R)-3-(5-[(R)-1-(4-Chloro-3,5-dimethyl-phenyl)-propylamino)-2-methyl-benzylamino]-2-methyl-propionic acid]	2.4
CC[C@@H](Nc1cc(CN2CCC(C)(C(=O)O)C2)c(Cl)cn1)c1ccc(Cl)c(C)c1 (stereo partly drawn) [Example 57, 1-{5-Chloro-2-[(R)-1-(4-chloro-3-methyl-phenyl)-propylamino]-pyridin-4-ylmethyl}-3-methyl-pyrrolidine-3-carboxylic acid]	2.4
CC[C@@H](Nc1cc(CN2CC[C@@H](C(=O)O)C2)c(C)cn1)c1ccc(Cl)c(C)c1 [Example 60, (R)-1-{2-[(R)-1-(4-Chloro-3-methyl-phenyl)-propylamino]-5-methyl-pyridin-4-ylmethyl}-pyrrolidine-3-carboxylic acid]	2.1
CC[C@@H](Nc1cccc(CN2CC(C(=O)O)C2)n1)c1ccc(Cl)c(C)c1 [Example 74, 1-{6-[(R)-1-(4-Chloro-3-methyl-phenyl)-propylamino]-pyridin-2-ylmethyl}-azetidine-3-carboxylic acid]	14.1
CC[C@@H](Nc1cc(CN2CC(C(=O)O)C2)ccn1)c1ccc(Cl)c(C)c1 [Example 75, 1-{2-[(R)-1-(4-Chloro-3-methyl-phenyl)-propylamino]-pyridin-4-ylmethyl}-azetidine-3-carboxylic acid]	2.8
Cc1cc([C@H](Nc2cccc(CN3CC(C(=O)O)C3)c2)C2CCC2)ccc1Cl [Example 76, 1-(3-{[(R)-(4-Chloro-3-methyl-phenyl)-cyclobutyl-methyl]-amino}-benzyl)-azetidine-3-carboxylic acid]	5.7
CC[C@@H](Nc1ccc(C)c(CNCC(C)(C)C(=O)O)c1)c1cc(C)c(Cl)c(C)c1 [Example 80, 3-{5-[(R)-1-(4-Chloro-3,5-dimethyl-phenyl)-propylamino]-2-methyl-benzylamino}-2,2-dimethyl-propionic acid]	24.5
CC[C@@H](Nc1ccc(C)c(CNC[C@H](C)C(=O)O)c1)c1cc(C)c(Cl)c(C)c1 [Example 81, (S)-3-{5-[(R)-1-(4-Chloro-3,5-dimethyl-phenyl)-propylamino]-2-methyl-benzylamino}-2-methyl-propionic acid]	3.9
CC[C@@H](Nc1ccc(C)c(CN(C)CCC(=O)O)c1)c1cc(C)c(Cl)c(C)c1 [Example 82, 3-({5-[(R)-1-(4-Chloro-3,5-dimethyl-phenyl)-propylamino]-2-methyl-benzyl}-methyl-amino)-propionic acid]	3
Cc1cc([C@H](Nc2ccc(C)c(CN3CCC(C)(C(=O)O)C3)c2)C(F)(F)F)ccc1Cl (stereo partly drawn) [Example 83, 1-{5-[(S)-1-(4-Chloro-3-methyl-phenyl)-2,2,2-trifluoro-ethylamino]-2-methyl-benzyl}-3-methyl-pyrrolidine-3-carboxylic acid]	2.9

More lines, now with the values ahead:

IC50 [nM]	Structure (SMILES)
1	Cc1cc([C@H](Nc2ccc(C)c(CN3CC[C@@H](C(=O)O)C3)c2)C(F)(F)F)ccc1Cl [Example 21, (R)-1-{5-[(S)-1-(4-Chloro-3-methyl-phenyl)-2,22-trifluoro-ethylamino]-2-methyl-benzyl}-pyrrolidine-3-carboxylic acid]
1	CC[C@@H](Nc1ccc(C)c(CN2CC[C@@H](C(=O)O)C2)c1)c1ccc(Cl)c(C)c1 [Example 23, (R)-1-{5-[(R)-1-(4-Chloro-3-methyl-phenyl)-propylamino]-2-methyl-benzyl}-pyrrolidine-3-carboxylic acid]
1.3	Cc1cc([C@@H](C)Nc2ccc(Cl)c(CN3CC[C@@H](C(=O)O)C3)c2)cc(C)c1Cl [Example 46, (R)-1-{2-Chloro-5-[(R)-1-(4-chloro-3,5-dimethyl-phenyl)-ethylamino]-benzyl}-pyrrolidine-3-carboxylic acid]
1.6	Cc1ccc(N[C@H](C)c2cc(C)c(Cl)c(C)c2)cc1CNCCC(=O)O [Example 47, 3-{5-[(R)-1-(4-Chloro-3,5-dimethyl-phenyl)-ethylamino]-2-methyl-benzylamino}-propionic acid]
0.9	Cc1cc([C@H](Nc2ccc(Cl)c(CNCCC(=O)O)c2)C(F)(F)F)ccc1Cl [Example 52, 3-{2-Chloro-5-[(S)-1-(4-chloro-3-methyl-phenyl)-2,2,2-trifluoro-ethylamino]-benzylamino}-propionic acid]
0.9	CC[C@@H](Nc1cc(CN2CC(C(=O)O)C2)c(F)cn1)c1ccc(Cl)c(C)c1 [Example 54, 1-{2-[(R)-1-(4-Chloro-3-methyl-phenyl)-propylamino]-5-fluoro-pyridin-4-ylmethyl}-azetidine-3-carboxylic acid]
0.1	CC[C@@H](Nc1cc(CNCCC(=O)O)c(Cl)cn1)c1ccc(Cl)c(C)c1 [Example 58, 3-({5-Chloro-2-[(R)-1-(4-chloro-3-methyl-phenyl)-propylamino]-pyridin-4-ylmethyl}-amino)-propionic acid]
1.1	Cc1cc([C@H](Nc2ccc(Cl)c(CN3CC(C(=O)O)C3)c2)C(C)C)ccc1Cl [Example 63, 1-{2-Chloro-5-[(R)-1-(4-chloro-3-methyl-phenyl)-2-methyl-propylamino]-benzyl}-azetidine-3-carboxylic acid]
1.7	Cc1cc([C@H](Nc2ccc(Cl)c(CN3CC(C(=O)O)C3)c2)C(C)C)cc(C)c1Cl [Example 64, 1-{2-Chloro-5-[(R)-1-(4-chloro-3,5-dimethyl-phenyl)-2-methyl-propylamino]-benzyl}-azetidine-3-carboxylic acid]
0.8	Cc1cc([C@H](Nc2cccc(CN3CC(C(=O)O)C3)c2)C(F)(F)F)ccc1Cl [Example 67, 1-{3-[(S)-1-(4-Chloro-3-methyl-phenyl)-2,2,2-trifluoro-ethylamino]-benzyl}-azetidine-3-carboxylic acid]
0.7	Cc1cc([C@H](Nc2ccc(Cl)c(CN3CC(C(=O)O)C3)c2)C(F)(F)F)ccc1Cl [Example 68]
0.8	Cc1cc([C@H](Nc2ccc(C(F)(F)F)c(CN3CC(C(=O)O)C3)c2)C(F)(F)F)ccc1Cl [Example 69, 1-{5-[(S)-1-(4-Chloro-3-methyl-phenyl)-2,2,2-trifluoro-ethylamino]-2-trifluoromethyl-benzyl}-azetidine-3-carboxylic acid]
1.1	Cc1cc([C@H](Nc2ccc(Cl)c(CN3CCC(C(=O)O)C3)c2)C(F)(F)F)ccc1Cl (stereo partly drawn) [Example 72, 1-{2-Chloro-5-[(S)-1-(4-chloro-3-methyl-phenyl)-2,2,2-trifluoro-ethylamino]-benzyl}-pyrrolidine-3-carboxylic acid]
0.8	CC[C@@H](Nc1ccnc(CN2CC(C(=O)O)C2)c1)c1ccc(Cl)c(C)c1 [Example 78, 1-{4-[(R)-1-(4-Chloro-3-methyl-phenyl)-propylamino]-pyridin-2-ylmethyl}-azetidine-3-carboxylic acid]
0.6	CC[C@@H](Nc1cc(CN2CC(C(=O)O)C2)c(Cl)cn1)c1ccc(Cl)c(C)c1 [Example 79, 1-{5-Chloro-2-[(R)-1-(4-chloro-3-methyl-phenyl)-propylamino]-pyridin-4-ylmethyl}-azetidine-3-carboxylic acid]

tested on: peripheral lymphocyte counts; assay: Measurement of circulating lymphocytes after oral administration (mice); type: in vivo; settings: Mus musculus, C57BL/6NCrl mice, 30 mg/kg p.o., 24 hours, vs mean counts of untreated animals, mean ± STDEV, read-out: Residual Lymphocyte Counts 24 hours after p.o. dosing
Description: The compounds of the invention, e.g. compounds of formula (I) typically induce the depletion of blood lymphocyte as may be determined in the assay described below. Moreover, compounds of the invention, e.g. compounds of formula (I) are typically efficacious in the said assay also when administered via the per oral route of administration.
Measurement of Circulating Lymphocytes:
The test compounds (or salts thereof) are dissolved in a vehicle such as water, saline, PEG (polyethylene glycol) 200, or PBS (phosphate buffered saline). Adult mice (C57BU6NCrl strain, female, 18-20 g) or rats (Lewis strain, male, 6-12 weeks old) are administered up to 60 mg/kg of the test compounds in 10 ml/kg (C57BU6NCrl mice) or 2 ml/kg (Lewis rats) vehicle via per oral application. The vehicle or a reference salt and FTY720 (0.3 mg/kg) are used as negative and positive controls, respectively. Blood is collected from the sublingual vein at single time points, e.g. 14 or 24 hours after the test compound administration, under short isoflurane anesthesia. Two to three animals are used in each group. Whole blood samples are subjected to hematology analysis. Peripheral lymphocyte counts are determined using an automated analyzer. The Haemathology System uses a combination of light scatter, cytochemical staining and nuclear density on two independent channels to measure the total and differential white cell counts. The reduction of lymphocytes provoked by each test compound is calculated by comparing the lymphocyte counts measured after each treatment to the mean lymphocyte counts measured in five to eight untreated mice or rats, respectively. The data are presented as mean±STDEV.

Structure (SMILES)	response vs control in vivo at 30 mg/kg [%]
Cc1cc([C@H](Nc2ccc(C)c(CN3CC[C@@H](C(=O)O)C3)c2)C(F)(F)F)ccc1Cl [Example 21, (R)-1-{5-[(S)-1-(4-Chloro-3-methyl-phenyl)-2,22-trifluoro-ethylamino]-2-methyl-benzyl}-pyrrolidine-3-carboxylic acid]	17.8
CC[C@@H](Nc1ccc(C)c(CN2CC[C@@H](C(=O)O)C2)c1)c1ccc(Cl)c(C)c1 [Example 23, (R)-1-{5-[(R)-1-(4-Chloro-3-methyl-phenyl)-propylamino]-2-methyl-benzyl}-pyrrolidine-3-carboxylic acid]	25.1
CC[C@@H](Nc1ccc(Cl)c(CN2CC(C)(C(=O)O)C2)c1)c1cc(C)c(Cl)c(C)c1 [Example 66, 1-{2-Chloro-5-[(R)-1-(4-chloro-3,5-dimethyl-phenyl)-propylamino]-benzyl}-3-methyl-azetidine-3-carboxylic acid]	19.4
